# Laboratory results: ChEMBL document CHEMBL1201862, “PubChem BioAssay data set” (2004)
#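 A five-concentration, 48-hour dose response in 96-well plates underlies each endpoint, interpolated linearly between surrounding concentrations. GI50: concentration for 50% inhibition of growth.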 Activity calls are given as the source filed them. No stated cut-off is given here; in the data, active = GI50 up to about 1.1 µM and inactive = higher.
# What was measured:
# Assay in all cases: NCI tumour cell line growth inhibition, 48 h
# [1] = tested on: HCC 2998
# [2] = tested on: TK-10
# [3] = tested on: COLO 205
# [4] = tested on: 786-0
# [5] = tested on: NCI-H522
# [6] = tested on: OVCAR-5
# [7] = tested on: MDA-MB-435
# [8] = tested on: SK-MEL-28
# [9] = tested on: ACHN
# [10] = tested on: RXF 393
# [11] = tested on: UACC-257
# [12] = tested on: SK-MEL-2
# [13] = tested on: CCRF-CEM
# [14] = tested on: HOP-62
# [15] = tested on: MOLT-4
# [16] = tested on: SW-620
# [17] = tested on: CAKI-1
# [18] = tested on: HCT-116
# [19] = tested on: A549
# [20] = tested on: LOX IMVI
SMILES,GI50 [1],GI50 [2],GI50 [3],GI50 [4],GI50 [5],GI50 [6],GI50 [7],GI50 [8],GI50 [9],GI50 [10],GI50 [11],GI50 [12],GI50 [13],GI50 [14],GI50 [15],GI50 [16],GI50 [17],GI50 [18],GI50 [19],GI50 [20]
C/C(=N/NC(=S)Nc1cccc(C)c1)c1ccccn1,1.91 µM (inactive),0.274 µM (active),< 0.01 µM (active),0.0217 µM (active),0.238 µM (active),0.0392 µM (active),1.35 µM (inactive),1.71 µM (inactive),< 0.0481 µM (active),1.12 µM (inactive),< 0.01 µM (active),1.68 µM (inactive),< 0.01 µM (active),0.0341 µM (active),< 0.01 µM (active),< 0.01 µM (active),< 0.0532 µM (active),< 0.01 µM (active),1.87 µM (inactive),< 0.0121 µM (active)
O=C1NC(=O)C23C(=O)NC(=O)C12C1C=CC3CC1 (configuration not stated),> 10 µM (inactive),> 10 µM (inactive),> 10 µM (inactive),> 10 µM (inactive),> 10 µM (inactive),–,> 10 µM (inactive),> 10 µM (inactive),> 10 µM (inactive),> 10 µM (inactive),> 10 µM (inactive),> 10 µM (inactive),> 10 µM (inactive),> 10 µM (inactive),> 10 µM (inactive),> 10 µM (inactive),> 10 µM (inactive),> 10 µM (inactive),> 10 µM (inactive),> 10 µM (inactive)
Cc1cnc2c(c1)C(=O)C1=C(C2=O)C2OC(=O)CC2OC1(C)C (configuration not stated),0.248 µM (active),0.735 µM (active),0.0462 µM (active),0.258 µM (active),0.0525 µM (active),0.301 µM (active),0.308 µM (active),0.684 µM (active),0.107 µM (active),0.205 µM (active),0.198 µM (active),0.964 µM (active),0.0239 µM (active),1.18 µM (inactive),0.0776 µM (active),0.0782 µM (active),0.12 µM (active),0.0681 µM (active),1.53 µM (inactive),0.193 µM (active)
O=C1NC(NNc2ccccc2)=N/C1=C\c1ccco1,17.6 µM (inactive),18.3 µM (inactive),12.6 µM (inactive),17.4 µM (inactive),12.9 µM (inactive),37.7 µM (inactive),12.4 µM (inactive),25.4 µM (inactive),13.2 µM (inactive),13.4 µM (inactive),21.1 µM (inactive),12.9 µM (inactive),4.61 µM (inactive),33.9 µM (inactive),30.1 µM (inactive),18.1 µM (inactive),14.3 µM (inactive),14.3 µM (inactive),46.5 µM (inactive),–
CC1(C)COC(c2cccc(C(O)c3ccc(Cl)cc3)c2)=N1 (configuration not stated),23.8 µM (inactive),32.6 µM (inactive),18 µM (inactive),23.9 µM (inactive),31.8 µM (inactive),17.9 µM (inactive),24.9 µM (inactive),29.2 µM (inactive),33.7 µM (inactive),15 µM (inactive),–,24.2 µM (inactive),19 µM (inactive),30.1 µM (inactive),12.1 µM (inactive),28.9 µM (inactive),42.3 µM (inactive),18.1 µM (inactive),> 10 µM (inactive),15 µM (inactive)
C[C@@H]1CC[C@@H]2[C@@H](C1)O[C@@H]([C@H](C)OCc1ccccc1)SC2(C)C,17.9 µM (inactive),32.1 µM (inactive),19.3 µM (inactive),21.2 µM (inactive),19.7 µM (inactive),16.3 µM (inactive),30.3 µM (inactive),32.1 µM (inactive),18.8 µM (inactive),17.6 µM (inactive),25.5 µM (inactive),17.5 µM (inactive),–,34.4 µM (inactive),18.4 µM (inactive),18.9 µM (inactive),34.8 µM (inactive),14.7 µM (inactive),26.3 µM (inactive),18.4 µM (inactive)
CN(Cc1ccccc1)C(=S)S [SODIUM BENZYL(METHYL)CARBAMODITHIOATE],> 100 µM (inactive),–,57.3 µM (inactive),19.2 µM (inactive),27.8 µM (inactive),35.9 µM (inactive),43.2 µM (inactive),69.2 µM (inactive),53.5 µM (inactive),54.5 µM (inactive),53.2 µM (inactive),55.7 µM (inactive),16.5 µM (inactive),43.2 µM (inactive),20 µM (inactive),51.3 µM (inactive),37.4 µM (inactive),19.2 µM (inactive),33.5 µM (inactive),27.9 µM (inactive)
CC(=N\N=C\c1ccccn1)/C(C)=N/N=C(C)/C(C)=N/N=C/c1ccccn1,> 100 µM (inactive),> 100 µM (inactive),> 100 µM (inactive),> 100 µM (inactive),> 100 µM (inactive),> 100 µM (inactive),> 100 µM (inactive),> 100 µM (inactive),> 100 µM (inactive),> 100 µM (inactive),> 100 µM (inactive),> 100 µM (inactive),> 100 µM (inactive),> 100 µM (inactive),–,> 100 µM (inactive),> 100 µM (inactive),> 100 µM (inactive),> 100 µM (inactive),> 100 µM (inactive)
COC(=O)c1c([N+](=O)[O-])ncn1[C@H]1OC[C@@H](OC(C)=O)[C@@H](OC(C)=O)[C@@H]1OC(C)=O,> 100 µM (inactive),> 100 µM (inactive),> 100 µM (inactive),> 100 µM (inactive),> 100 µM (inactive),> 100 µM (inactive),> 100 µM (inactive),> 100 µM (inactive),> 100 µM (inactive),> 100 µM (inactive),> 100 µM (inactive),–,> 100 µM (inactive),> 100 µM (inactive),> 100 µM (inactive),> 100 µM (inactive),> 100 µM (inactive),> 100 µM (inactive),> 100 µM (inactive),> 100 µM (inactive)
CC(=O)O[C@H]1CC(C)(C)C(=C=C/C(C)=C/C=C/C=C/C=C(C)/C=C2C=C(/C=C/[C@@]34O[C@]3(C)C[C@@H](O)CC4(C)C)C(=O)O/2)[C@](C)(O)C1,20.7 µM (inactive),0.959 µM (active),19.6 µM (inactive),16 µM (inactive),3.99 µM (inactive),19.1 µM (inactive),14.8 µM (inactive),23.6 µM (inactive),19.3 µM (inactive),4.01 µM (inactive),12.8 µM (inactive),3.31 µM (inactive),2.94 µM (inactive),13.3 µM (inactive),3.85 µM (inactive),19.6 µM (inactive),30.8 µM (inactive),5.33 µM (inactive),11.5 µM (inactive),–
COc1ccc(C2(O)c3ccccc3C(=O)N(C)C2(O)c2ccc(OC)cc2)cc1 (configuration not stated),49.3 µM (inactive),59.4 µM (inactive),22.6 µM (inactive),81.5 µM (inactive),16.1 µM (inactive),> 100 µM (inactive),17.3 µM (inactive),25.6 µM (inactive),–,> 100 µM (inactive),61.9 µM (inactive),43.4 µM (inactive),51.8 µM (inactive),70.8 µM (inactive),24.7 µM (inactive),34.2 µM (inactive),57.1 µM (inactive),37.8 µM (inactive),57.8 µM (inactive),30.1 µM (inactive)
COc1cc(/C=C\c2ccc(SC)cc2)cc(OC)c1OC,< 0.01 µM (active),23.7 µM (inactive),0.0271 µM (active),0.0221 µM (active),0.0133 µM (active),1.15 µM (inactive),< 0.01 µM (active),–,0.467 µM (active),0.0117 µM (active),–,0.0188 µM (active),0.0202 µM (active),0.0175 µM (active),0.0281 µM (active),< 0.01 µM (active),0.244 µM (active),< 0.0158 µM (active),0.0215 µM (active),< 0.0262 µM (active)
C=C(C)[C@@]1(O)CCC[C@H]1NC(=O)OC(C)(C)C,> 100 µM (inactive),> 100 µM (inactive),> 100 µM (inactive),> 100 µM (inactive),> 100 µM (inactive),> 100 µM (inactive),> 100 µM (inactive),> 100 µM (inactive),> 100 µM (inactive),> 100 µM (inactive),> 100 µM (inactive),> 100 µM (inactive),84.9 µM (inactive),> 100 µM (inactive),–,> 100 µM (inactive),> 100 µM (inactive),> 100 µM (inactive),> 100 µM (inactive),> 100 µM (inactive)
O=C(CSc1nnc(SCC(=O)NN=C2CCCCC2)s1)NN=C1CCCCC1,> 100 µM (inactive),> 100 µM (inactive),> 100 µM (inactive),> 100 µM (inactive),> 100 µM (inactive),> 100 µM (inactive),> 100 µM (inactive),> 100 µM (inactive),> 100 µM (inactive),> 100 µM (inactive),> 100 µM (inactive),–,> 100 µM (inactive),> 100 µM (inactive),> 100 µM (inactive),> 100 µM (inactive),> 100 µM (inactive),> 100 µM (inactive),> 100 µM (inactive),> 100 µM (inactive)
